{
  "source": "patent US20140322193A1",
  "about": "“Therapies for Disorders of the Cornea and Conjunctiva” (priority 2011, published 2014)",
  "key": {"[1]": {"tested_on": "CBA/J mice", "assay": "Mouse BTX-B dry eye model, corneal fluorescein staining (corneal ulceration)", "format": "in vivo", "conditions": "for Corneal fluorescein staining, MEAN, DAY 7: 7 days after BTX-B injection; for Corneal fluorescein staining, MEAN, DAY 7 / Corneal fluorescein staining, MEAN, DAY 14: eye drops twice daily in Refresh Celluvisc (A-438079 20 μM, BBG 20 μM, oxATP 300 μM), grade 0 to 4 scale; for Corneal fluorescein staining, MEAN, DAY 14: 14 days after BTX-B injection; for Corneal fluorescein staining, MEAN, DAY 0: day 0, prior to BTX-B injection (baseline), grade on 0 to 4 scale of Table 2; for Effect on corneal fluorescein staining (in words): days 7 and 14, chosen dose, b.i.d. eye drops"}, "[2]": {"biological_target": "T1, mouse P2X7 receptor (Mus musculus, UniProt Q9Z1M0)", "T1 sequence (Q9Z1M0 1-595)": "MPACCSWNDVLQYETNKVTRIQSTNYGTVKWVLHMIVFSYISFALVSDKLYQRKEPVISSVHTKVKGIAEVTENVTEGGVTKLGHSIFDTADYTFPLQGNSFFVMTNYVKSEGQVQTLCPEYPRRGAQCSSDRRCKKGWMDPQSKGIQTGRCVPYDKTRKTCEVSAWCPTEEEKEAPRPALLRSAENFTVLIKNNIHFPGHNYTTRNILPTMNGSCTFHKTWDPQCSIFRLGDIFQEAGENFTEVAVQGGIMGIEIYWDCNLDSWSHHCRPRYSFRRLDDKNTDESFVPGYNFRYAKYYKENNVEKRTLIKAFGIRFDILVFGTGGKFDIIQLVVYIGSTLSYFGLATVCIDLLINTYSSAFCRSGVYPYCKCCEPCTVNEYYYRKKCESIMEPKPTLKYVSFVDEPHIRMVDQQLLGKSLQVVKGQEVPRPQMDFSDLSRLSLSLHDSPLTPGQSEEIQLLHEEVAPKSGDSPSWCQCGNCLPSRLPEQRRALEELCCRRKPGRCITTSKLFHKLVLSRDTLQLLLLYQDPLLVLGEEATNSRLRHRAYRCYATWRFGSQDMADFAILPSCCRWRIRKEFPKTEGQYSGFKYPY", "conditions": "British Journal of Pharmacology 2009 157:1203; cited from earlier work"}, "[3]": {"assay": "Preservation of 1 μM BBG ophthalmic composition in containers at 60° C. for 2 days", "format": "physicochemical", "conditions": "1 μM BBG in BSS, PET, polypropylene, polyethylene and glass containers", "description": "BSS Sterile Irrigating Solution is obtained from Alcon Laboratories, Ft. Worth, Tex. BBG is obtained from Sigma Aldrich, St. Louis, Mo. With moderate stirring in a homomixer, 856 mg of BBG is added to 1 liter of BSS at room temperature. The mixture is then stirred until the BBG is completely in solution. This solution is a 1 mM stock solution. One ml of the stock solution is then added to one liter of BSS to yield the ophthalmic composition, which is 1 μM BBG in BSS. The ophthalmic composition is filtered through a membrane filter (0.45 μm pore diameter, Millipore), filled in a 15 mL polyethylene terephthalate eye drop container, a polypropylene container, a polyethylene container, and a glass container and preserved at 60° C. for 2 days. The amount of BBG from each container is measured before and after preservation."}},
  "note": "Entries after “also recorded” stand apart in the source; their conditions may differ.",
  "data": [
    {"smiles": "Clc1cccc(-c2nnnn2Cc2cccnc2)c1Cl", "note": "[A-438079]", "values": [
      {"measurement": "Corneal fluorescein staining, MEAN, DAY 7", "setting": "[1]", "value": 1.70},
      {"measurement": "Corneal fluorescein staining, MEAN, DAY 14", "setting": "[1]", "value": 2.70},
      {"measurement": "Corneal fluorescein staining, MEAN, DAY 0", "setting": "[1]", "value": 0.00},
      {"measurement": "Effect on corneal fluorescein staining (in words)", "setting": "[1]", "value": "did not attenuate fluorescein staining"}
    ]},
    {"smiles": "COc1ccc(CC(=O)NC(N=C(NC#N)Nc2cccc3ncccc23)C(C)(C)C)cc1OC", "note": "(centres unmarked) [A-740003]", "values": [
      {"measurement": "IC50", "setting": "[2]", "value": "~1000", "unit": "nM"}
    ]},
    {"smiles": "CCOc1ccc(Nc2ccc(/C(=C3C=C/C(=[N+](/CC)Cc4cccc(S(=O)(=O)[O-])c4)C=C/3C)c3ccc(N(CC)Cc4cccc(S(=O)(=O)[O-])c4)cc3C)cc2)cc1.[Na+]", "note": "[BBG, Coomassie Brilliant Blue G]", "values": [
      {"measurement": "Degradation of active ingredient after preservation", "setting": "[3]", "value": "little degradation"},
      {"measurement": "Corneal fluorescein staining, MEAN, DAY 7", "setting": "[1]", "value": 1.50},
      {"measurement": "Corneal fluorescein staining, MEAN, DAY 14", "setting": "[1]", "value": 2.00},
      {"measurement": "Corneal fluorescein staining, MEAN, DAY 0", "setting": "[1]", "value": 0.00},
      {"measurement": "Effect on corneal fluorescein staining (in words)", "setting": "[1]", "value": "did not attenuate fluorescein staining"}
    ]},
    {"smiles": "Nc1ncnc2c1ncn2[C@@H](C=O)O[C@@H](C=O)COP(=O)(O)OP(=O)(O)OP(=O)(O)O", "note": "[oxATP, periodate oxidized ATP]", "values": [
      {"measurement": "Corneal fluorescein staining, MEAN, DAY 7", "setting": "[1]", "value": 0.00},
      {"measurement": "Corneal fluorescein staining, MEAN, DAY 14", "setting": "[1]", "value": 0.00},
      {"measurement": "Corneal fluorescein staining, MEAN, DAY 0", "setting": "[1]", "value": 0.00},
      {"measurement": "Effect on corneal fluorescein staining (in words)", "setting": "[1]", "value": "completely prevented the fluorescein staining; also recorded: remarkably effective in preventing pathology"}
    ]}
  ]
}
